Assay results published in patent US10023587B2, “Oxabicycloheptanes and oxabicycloheptenes, their preparation and use” (LIXTE BIOTECHNOLOGY, INC., priority 2007, dated 2018).
Entries after “also recorded” stand apart in the source; their conditions may differ. Where two headings read alike, the source gives them in different places.

Experiments:
[1] = known cantharidin homologs, stated as known; cited from earlier work
GBM cell line U373 [2] = test: cells; assay type: cell-based, human
Protocol: To observe the effects Compound 100 in combination with retinoic acids, Compound 100 was combined with all-trans retinoic acid. […] The total number of cells is counted in the triplicate cultures at each dose and in controls after 7 days and the average number of cells and the standard deviation is determined.
(§1) The amount of inhibition of GBM cell growth is expressed as the proportion of the number of cells in the experimental dishes compared to the number of cells in control dishes containing only the drug vehicle and culture medium. The average percent of control is plotted and bracketed by one standard deviation calculated from the triplicate measurements.
Synergism (potentiation) of the inhibitory activity of two drugs in combination is said to be present when the percent survival in the presence of two drugs is less than the product of the percent survivals of the two drugs used alone at the same doses in the combination.

GBM cell line U373 [3] = test: Inhibition of growth of GBM cell line U373 by single agents (cell counts); assay type: cell-based, human; details: for Inhibition of growth of cell line U373 (in words): single agent; for IC50: U373, exposure for 7 days, estimated from graphic plots (FIG. 1), read-out: concentration that inhibited brain tumor cell proliferation by 50% (IC50)
Description: From graphic plots of the glioblastoma multiforme GBM cell line U373 (available from the National Institute of Neurological Disorders and Stroke Molecular Pathogenesis Unit, Building 10, Room 5 D37, National Institutes of Health, 900 Rockville Pike, Bethesda, Md., 20892) as a function of exposure to different doses of drug for 7 days, the concentration of each compound that inhibited brain tumor cell proliferation by 50% (IC50) was estimated.
To identify novel therapeutic targets for the treatment of glioblastoma multiforme (GBM), cantharidin analogues were evaluated for their ability to inhibit growth of glioblastoma multiforme cells. Specifically, GBM cell line U373 was used in evaluations.
The total number of cells is counted in the triplicate cultures at each dose and in controls after 7 days and the average number of cells and the standard deviation is determined.
as §1
For all cell culture experiments, cells are allowed to grow in the presence or absence of different concentrations of drug or in the presence of the vehicle used to dissolve the drug, PBS for compound 100 and DMSO for compound 102. Cell counts are done in triplicate on day 3 and day 7 and inhibition of growth is expressed as a percentage of the number of cells present in the experimental well divided by the number of cells in a control well.

[4] = test system: kidney cancer cell line, UMRC; test: Inhibition of growth of kidney cancer cell line UMRC; assay type: cell-based; details: single agent, 7 days (FIG. 3)
Description: (§2) To determine whether there is tumor type specificity of the inhibitory properties of analogues of Compound 100, retinoic acid and Trichostatin A, we measured their inhibitory effects as single agents against the GBM line U373, a breast cancer line, MCF-7 (obtained from ATCC) and a kidney cancer cell line, UMRC (UMRC obtained by Dr. Zhuang, NINDS, NIH from the Intramural Research Support Program, SAIC, National Cancer Institute, Frederick Cancer Research and Development Center).

[5] = test system: breast cancer line, MCF-7; test: Inhibition of growth of breast cancer cell line MCF-7; assay type: cell-based; details: single agent, 7 days (FIG. 5)
Description: as §2

Stability at acid pH = assay type: physicochemical
[6] = Solubility (water, lipid); assay type: physicochemical; details: own compounds

Row | SMILES | melting point | Inhibition of growth of cell line U373 (in words) (GBM cell line U373 [3]; 7 days) | Sensitivity of UMRC compared with U373 (in words) [4] | Inhibition of growth of MCF-7 (in words) [5] | further results
1 | C[C@@]12C(=O)OC(=O)[C@]1(C)[C@H]1CC[C@@H]2O1 [cantharidin] | – | – | – | – | Water solubility (in words) [1]: not
2 | COC(=O)C1C(C(=O)N2CCN(C)CC2)[C@@H]2CC[C@H]1O2 (stereo partly drawn) | 105 to 107 °C | – | – | – | –
3 | CC1=C(/C=C/C(C)=C/C=C/C(C)=C\C(=O)O)C(C)(C)CCC1 [Cis-RA, 13-cis Retinoic Acid] | – | – | – | – | Percent of Control, Observed (GBM cell line U373 [2]; Cis-RA 50 μM, U373 (Table 4)): 93.3 +/− 2.2% of Control
4 | O=C(O)C1C(C(=O)N2CCN(Cc3ccccc3)CC2)[C@@H]2CC[C@H]1O2 (stereo in doubt) [Compound 103, 3-(4-Benzylpiperazine-1-carbonyl)-7-oxa-bicyclo[2.2.1]heptane-2-carboxylic acid] | > 190 °C (dec.) | less activity | – | – | –
5 | CN(C)CCNC(=O)C1C(C(=O)O)[C@H]2CC[C@@H]1O2 (stereo partly drawn) [Compound 106] | 48 to 50 °C | less activity | – | – | –
6 | CC1=C(/C=C/C(C)=C/C=C/C(C)=C/C(=O)O)C(C)(C)CCC1 [ATRA, all-trans retinoic acid] | – | – | less sensitive than the brain tumor line, U373 | an inhibition in growth | Inhibition of growth of MCF-7 (in words) ([5]; listed as all-trans retinoic acid): as sensitive as U373; activity at 25 µM (GBM cell line U373 [2]; Homo sapiens, U373 MG, 168 h, read-out: Percent of Control, Observed): 77%
7 | COc1ccc(CCN2CCC(NC(=O)C3C(C(=O)O)[C@H]4CC[C@@H]3O4)CC2)cc1 (stereo in doubt) [Compound 104, 3-(1-[2-(4-Methoxy-phenyl)-ethyl]piperidin-4-ylcarbamoyl)-7-oxa-bicyclo[2.2.1]-heptane-2-carboxylic acid] | 140 to 142 °C | less activity | – | – | –
8 | O=C(O)[C@@H]1[C@H](C(=O)O)[C@H]2CC[C@@H]1O2 [endothal] | – | Increasing dosages demonstrate a greater inhibition of growth; also recorded: modest inhibition of growth | less sensitive than the brain tumor line, U373 | as sensitive as U373; also recorded: an inhibition in growth | IC50 (GBM cell line U373 [3]): 15 µM; Percent of Control, Observed (GBM cell line U373 [2]; END 10 uM, U373, 7 days (Table 3)): 65%
9 | CC(/C=C/C(=O)NO)=C\[C@@H](C)C(=O)c1ccc(N(C)C)cc1 [TSA, Trichostatin A] | – | – | less sensitive than the brain tumor line, U373 | an inhibition in growth | Inhibition of growth of MCF-7 (in words) ([5]; listed as Trichostatin A): as sensitive as U373; Percent of Control, Observed (GBM cell line U373 [2]; TSA 0.033 μM (0.01 μg/ml), U373 (Table 4)): 71.6 +/− 0.4% of Control
10 | O=C(O)C1C(C(=O)N2CCNCC2)[C@@H]2CC[C@H]1O2 (stereo in doubt) [Compound 101, 3-(Piperazine-1-carbonyl)-7-oxa-bicyclo[2.2.1]heptane-2-carboxylic acid] | > 240 °C (dec.) | less activity | – | – | –
11 | CCN1CCN(C(=O)C2C(C(=O)O)[C@H]3CC[C@@H]2O3)CC1 (stereo partly drawn) [Compound 105, 1-(3-Exocarboxy-7-oxabicyclo[2.2.1]heptane-2-exocarbonyl)-4-ethylpiperazine] | – | Increasing dosages demonstrate a greater inhibition of growth | – | – | Stability at acid pH (in words) (Stability at acid pH): stable at acid pH; Water solubility (in words) [6]: water soluble; Inhibitory value against U373, comparison of the two compounds (GBM cell line U373 [3]; 10 μM, seven days (FIG. 8)): identical inhibitory values; Inhibition of growth of cell line U373 (in words) (GBM cell line U373 [3]; 7 days, listed as compound 105): highly active; Inhibition of growth of cell line U373 (in words) (GBM cell line U373 [3]; after three days (FIG. 6)): Increasing dosages demonstrate a greater inhibition of growth
12 | O=C1SC(=O)[C@H]2[C@@H]1[C@@H]1CC[C@H]2O1 [endothal thioanhydride, reference compound] | – | Increasing dosages demonstrate a greater inhibition of growth; also recorded: greatest inhibition of growth | less sensitive than the brain tumor line, U373 | as sensitive as U373 | IC50 (GBM cell line U373 [3]): 2.5 µM
13 | O=C1OC(=O)[C@H]2[C@@H]1[C@H]1CC[C@H]2O1 [norcantharidin] | – | Increasing dosages demonstrate a greater inhibition of growth | less sensitive than the brain tumor line, U373 | as sensitive as U373 | Water solubility (in words) [1]: not; IC50 (GBM cell line U373 [3]): 12 µM
